Measured values from paper PMC7933930, “Development of a small molecule that corrects misfolding and increases secretion of Z α1‐antitrypsin” (EMBO Molecular Medicine, 2021).
Like-named read-outs stand apart in the source and are kept apart here.

Experiments:
Adrenergic β2 = Adrenergic β2 (Homo sapiens, UniProt P07550); assay: Off‐target panel: Adrenergic β2 (DRX); format: cell-based; conditions: read-out: Mean (PXC50)
Method: (§1) GSK716 selectivity and PK properties were profiled in order to investigate the suitability of GSK716 for progression into in vivo studies and the potential for taking it forward as a clinical candidate for testing in humans. Since GSK716 results in loss of inhibitory activity of α1‐antitrypsin, the effect of the compound was assessed on other closely related serpins. […] Furthermore, there were no off‐target effects in a panel of assays considered predictive of known safety liabilities that precluded further development of GSK716 (Table EV1).

[1] = system: Z α1‐antitrypsin polymers; assay: Liver polymer load in Z α1‐antitrypsin transgenic mice (2C1 immunohistochemistry); format: in vivo, mouse; conditions: 100 mg/kg three times a day for 20 days, versus vehicle
Method: Since GSK716 blocks polymer formation in cells, we explored the effect of dosing GSK716 on liver polymer levels. […] GSK716 was dosed at 100 mg/kg three times a day for 20 days. […] Liver polymer levels were investigated by staining with 2C1 anti‐polymer monoclonal antibody and were scored blind by a pathologist or by quantification using an algorithm to measure all areas of positive staining (Fig EV1). There was no difference observed in total liver polymer load when assessed by manual or quantitative scoring (Fig 6B and C). There was no significant fibrosis in any of the liver sections. Intrahepatic α1‐antitrypsin was also assessed by ELISA. […] Treatment with GSK716 increased the monomer measured in liver homogenate by approx. fourfold in keeping with the changes seen in blood.
Formalin‐fixed, paraffin‐embedded livers from all mice were sectioned and stained with haematoxylin and eosin (H&E) and periodic acid Schiff (PAS) with diastase to examine tissue quality and the presence of diastase‐resistant polymer inclusions, respectively. […] Representative sections of liver from each mouse were blindly evaluated by a Board‐Certified Veterinary Pathologist and ranked in order of polymer content. A semi‐automated image analysis solution was developed to quantify total polymer content (Fig EV1). […]

P-gp (MDR1) = assay: Permeability in MDR1‐MDCK cells with pgp inhibitor; format: in vitro ADME; conditions: dog
Method: Permeability in MDR1‐MDCK cells in the presence of pgp inhibitor GF120918 was high at 248 and 240 nm/s for the apical to basal and basal to apical directions, respectively (N53531‐23 for DI).
MDR1‐MDCK cells were used between passage numbers 6–30. Cells were seeded onto Millipore Multiscreen Transwell plates at 3.4 × 10^5 cells/cm^2. The cells were cultured in DMEM and media was changed on day 3. On day 4 the permeability study was performed. Cell culture and assay incubations were carried out at 37°C in an atmosphere of 5% v/v CO2 with a relative humidity of 95%. On the day of the assay, the monolayers were prepared by rinsing both apical and basolateral surfaces twice with Hanks Balanced Salt Solution (HBSS) at the desired pH warmed to 37°C. Cells were then incubated with HBSS at the desired pH in both apical and basolateral compartments for 40 min to stabilise physiological parameters. Where applicable, a P‐gp inhibitor (elacridar, 2 µM) was included on both sides of the monolayer for the equilibration period. For assessment of apical‐basolateral permeability, HBSS was removed from the apical compartment and replaced with test compound dosing solution. The apical compartment insert was then placed into a companion plate containing fresh buffer (containing 0.5% v/v DMSO or, where applicable, a P‐gp inhibitor, maintaining a 0.5% v/v DMSO concentration). […]

MRGPRX2 = MRGPRX2 (Homo sapiens, UniProt Q96LB1); assay: Off‐target panel: MRGPRX2 Agonist (DRX); format: cell-based; conditions: read-out: Mean (PXC50)
Method: as §1

Cannabinoid CB1 = Cannabinoid CB1 (Homo sapiens, UniProt P21554); assay: Off‐target panel: Cannabinoid CB1 (DRX); format: cell-based
Method: as §1

OPRM1 = OPRM1 (Homo sapiens, UniProt P35372); assay: Off‐target panel: OPRM1; format: cell-based
Method: as §1

Adrenergic α2C = Adrenergic α2C (Homo sapiens, UniProt P18825); assay: Off‐target panel: Adrenergic α2C (DRX); format: cell-based
Method: as §1

Dopamine D1 = Dopamine D1 (Homo sapiens, UniProt P21728); assay: Off‐target panel: Dopamine D1; format: cell-based
Method: as §1

antithrombin = antithrombin (Homo sapiens, UniProt P01008); assay: Inhibitory activity of antithrombin against thrombin; format: biochemical
Method: Figure 5 The effect of GSK716 on serpin inhibitory activity • α1‐Antitrypsin was incubated at varying molar ratios with the model protease bovine α‐chymotrypsin, and the residual protease activity determined. The intercept of the regression with the abscissa reflects the number of molecules of α1‐antitrypsin required to inhibit one molecule of chymotrypsin in the presence (+c) and absence (−c) of 50µM GSK716. Error bars reflect ± SEM of three independent experiments. • M α1‐antitrypsin was incubated with different molar ratios of chymotrypsin and resolved by SDS–PAGE. The position of covalent α1‐antitrypsin‐chymotrypsin complex (cpx), native (nat) and cleaved (clv) is shown. • The inhibitory activity of α1‐antichymotrypsin against chymotrypsin (ach + chym), neuroserpin against trypsin (neus + tryp), and antithrombin against thrombin (atiii + thrombin) was determined in the presence and absence of GSK716. Error bars reflect ± SD of two independent experiments.
GSK716 selectivity and PK properties were profiled in order to investigate the suitability of GSK716 for progression into in vivo studies and the potential for taking it forward as a clinical candidate for testing in humans. Since GSK716 results in loss of inhibitory activity of α1‐antitrypsin, the effect of the compound was assessed on other closely related serpins. […]

NMDA (NR2B) = NMDA (NR2B) (Homo sapiens, UniProt Q05586+Q13224); assay: Off‐target panel: NMDA (NR2B); format: cell-based
Method: as §1

OPRK1 = OPRK1 (Homo sapiens, UniProt P41145); assay: Off‐target panel: OPRK1 (DRX); format: cell-based
Method: as §1

Vasopressin V1a = Vasopressin V1a (Homo sapiens, UniProt P37288); assay: Off‐target panel: Vasopressin V1a (DRX); format: cell-based; conditions: Antagonist, read-out: Mean (PXC50)
Method: as §1

Chain of Adrenergic β2 (P07550 whole entry): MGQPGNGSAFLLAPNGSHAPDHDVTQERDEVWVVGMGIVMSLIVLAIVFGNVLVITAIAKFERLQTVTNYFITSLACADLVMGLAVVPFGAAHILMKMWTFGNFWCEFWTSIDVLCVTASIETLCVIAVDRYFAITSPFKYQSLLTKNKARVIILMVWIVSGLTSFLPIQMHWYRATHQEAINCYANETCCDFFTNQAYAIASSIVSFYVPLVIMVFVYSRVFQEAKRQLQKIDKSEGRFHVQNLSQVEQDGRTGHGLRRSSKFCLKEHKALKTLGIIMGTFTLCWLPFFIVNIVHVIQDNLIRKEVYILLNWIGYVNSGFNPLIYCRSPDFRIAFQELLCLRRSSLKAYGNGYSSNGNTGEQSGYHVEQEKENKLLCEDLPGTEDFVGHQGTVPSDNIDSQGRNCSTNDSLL
Chain of NMDA (NR2B) (Q13224 27-1484, species assumed, other chains not shown): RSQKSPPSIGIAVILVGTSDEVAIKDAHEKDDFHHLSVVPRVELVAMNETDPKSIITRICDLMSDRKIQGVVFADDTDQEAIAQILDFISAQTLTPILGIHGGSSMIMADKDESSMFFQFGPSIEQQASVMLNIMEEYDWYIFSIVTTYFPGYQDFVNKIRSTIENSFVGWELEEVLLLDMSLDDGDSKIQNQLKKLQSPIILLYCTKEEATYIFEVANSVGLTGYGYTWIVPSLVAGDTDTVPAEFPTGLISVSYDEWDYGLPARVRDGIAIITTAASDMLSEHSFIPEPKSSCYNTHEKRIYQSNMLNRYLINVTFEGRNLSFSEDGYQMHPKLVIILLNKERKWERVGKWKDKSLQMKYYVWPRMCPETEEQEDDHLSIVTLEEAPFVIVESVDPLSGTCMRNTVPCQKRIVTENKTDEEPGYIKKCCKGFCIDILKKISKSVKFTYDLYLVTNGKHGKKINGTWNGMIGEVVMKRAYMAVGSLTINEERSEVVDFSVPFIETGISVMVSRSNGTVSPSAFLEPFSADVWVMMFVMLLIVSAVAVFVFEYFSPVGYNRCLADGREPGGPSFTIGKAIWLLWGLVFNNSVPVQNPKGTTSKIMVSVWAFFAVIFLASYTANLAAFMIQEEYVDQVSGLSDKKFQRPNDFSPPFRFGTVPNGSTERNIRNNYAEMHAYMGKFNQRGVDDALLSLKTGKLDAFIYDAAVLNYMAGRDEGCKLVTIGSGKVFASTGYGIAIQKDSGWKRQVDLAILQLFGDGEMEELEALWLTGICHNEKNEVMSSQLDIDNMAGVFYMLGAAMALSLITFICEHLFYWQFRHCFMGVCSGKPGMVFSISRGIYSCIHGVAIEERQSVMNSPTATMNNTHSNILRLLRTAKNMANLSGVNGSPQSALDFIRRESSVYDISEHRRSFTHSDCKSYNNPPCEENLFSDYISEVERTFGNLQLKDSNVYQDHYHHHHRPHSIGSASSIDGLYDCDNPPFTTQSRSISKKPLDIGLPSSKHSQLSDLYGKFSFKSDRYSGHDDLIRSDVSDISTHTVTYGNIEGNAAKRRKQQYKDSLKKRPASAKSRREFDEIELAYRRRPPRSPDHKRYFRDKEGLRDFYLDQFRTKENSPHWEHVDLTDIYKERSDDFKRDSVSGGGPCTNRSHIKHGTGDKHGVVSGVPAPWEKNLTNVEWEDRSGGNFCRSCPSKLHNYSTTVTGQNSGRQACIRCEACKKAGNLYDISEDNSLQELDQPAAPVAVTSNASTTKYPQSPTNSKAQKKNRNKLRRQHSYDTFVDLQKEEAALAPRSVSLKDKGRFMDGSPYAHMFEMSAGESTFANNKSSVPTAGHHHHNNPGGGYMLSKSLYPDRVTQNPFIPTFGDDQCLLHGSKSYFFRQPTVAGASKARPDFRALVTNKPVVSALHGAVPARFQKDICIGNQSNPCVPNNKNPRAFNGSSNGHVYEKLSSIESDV
Chain of Adrenergic α2C (P18825 whole entry): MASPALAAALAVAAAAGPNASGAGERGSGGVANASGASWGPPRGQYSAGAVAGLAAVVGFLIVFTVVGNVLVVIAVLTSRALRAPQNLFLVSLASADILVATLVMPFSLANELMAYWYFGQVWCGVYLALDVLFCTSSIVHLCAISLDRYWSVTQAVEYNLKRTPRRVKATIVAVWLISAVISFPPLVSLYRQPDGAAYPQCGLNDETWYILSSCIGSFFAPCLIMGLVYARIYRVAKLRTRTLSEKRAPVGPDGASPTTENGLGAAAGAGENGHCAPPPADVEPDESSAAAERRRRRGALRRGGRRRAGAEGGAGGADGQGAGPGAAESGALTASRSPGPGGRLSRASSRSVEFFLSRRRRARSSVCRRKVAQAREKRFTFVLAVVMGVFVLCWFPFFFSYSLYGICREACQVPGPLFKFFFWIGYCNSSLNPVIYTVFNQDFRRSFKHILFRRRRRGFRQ
Chain of Dopamine D1 (P21728 whole entry): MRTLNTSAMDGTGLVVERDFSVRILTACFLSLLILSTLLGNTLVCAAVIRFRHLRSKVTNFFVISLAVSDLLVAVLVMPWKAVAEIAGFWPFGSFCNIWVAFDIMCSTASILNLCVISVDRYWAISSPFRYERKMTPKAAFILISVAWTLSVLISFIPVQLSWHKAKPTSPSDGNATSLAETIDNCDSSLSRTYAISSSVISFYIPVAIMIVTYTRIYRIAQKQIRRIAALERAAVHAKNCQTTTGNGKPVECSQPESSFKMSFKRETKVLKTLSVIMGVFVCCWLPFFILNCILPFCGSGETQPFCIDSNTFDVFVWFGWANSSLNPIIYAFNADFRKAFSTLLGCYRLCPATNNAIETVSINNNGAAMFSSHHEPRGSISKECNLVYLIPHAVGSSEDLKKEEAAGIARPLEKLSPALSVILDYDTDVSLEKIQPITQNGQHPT
Chain of OPRK1 (P41145 whole entry, species assumed): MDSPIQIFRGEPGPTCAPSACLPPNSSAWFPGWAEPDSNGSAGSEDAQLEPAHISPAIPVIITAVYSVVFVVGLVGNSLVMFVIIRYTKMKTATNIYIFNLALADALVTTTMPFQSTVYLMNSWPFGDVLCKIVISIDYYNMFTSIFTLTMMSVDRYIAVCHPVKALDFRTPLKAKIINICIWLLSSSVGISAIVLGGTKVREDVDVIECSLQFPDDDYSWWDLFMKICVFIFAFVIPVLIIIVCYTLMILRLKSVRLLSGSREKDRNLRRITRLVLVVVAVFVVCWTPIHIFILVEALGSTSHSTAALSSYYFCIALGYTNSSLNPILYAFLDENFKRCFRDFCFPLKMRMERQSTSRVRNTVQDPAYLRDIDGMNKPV
Chain of Vasopressin V1a (P37288 whole entry): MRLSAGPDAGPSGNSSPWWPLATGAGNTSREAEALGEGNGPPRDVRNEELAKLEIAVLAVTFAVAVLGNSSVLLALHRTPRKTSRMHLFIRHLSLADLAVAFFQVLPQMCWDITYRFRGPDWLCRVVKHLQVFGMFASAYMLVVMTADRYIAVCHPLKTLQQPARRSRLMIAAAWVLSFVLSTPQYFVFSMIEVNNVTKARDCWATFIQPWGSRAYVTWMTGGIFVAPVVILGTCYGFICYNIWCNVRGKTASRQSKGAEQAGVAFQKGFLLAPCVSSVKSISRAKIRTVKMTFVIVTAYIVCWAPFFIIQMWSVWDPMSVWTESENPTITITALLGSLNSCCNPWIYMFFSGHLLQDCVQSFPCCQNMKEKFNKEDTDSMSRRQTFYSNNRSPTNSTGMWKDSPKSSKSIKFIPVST
Chain of OPRM1 (P35372 whole entry, species assumed): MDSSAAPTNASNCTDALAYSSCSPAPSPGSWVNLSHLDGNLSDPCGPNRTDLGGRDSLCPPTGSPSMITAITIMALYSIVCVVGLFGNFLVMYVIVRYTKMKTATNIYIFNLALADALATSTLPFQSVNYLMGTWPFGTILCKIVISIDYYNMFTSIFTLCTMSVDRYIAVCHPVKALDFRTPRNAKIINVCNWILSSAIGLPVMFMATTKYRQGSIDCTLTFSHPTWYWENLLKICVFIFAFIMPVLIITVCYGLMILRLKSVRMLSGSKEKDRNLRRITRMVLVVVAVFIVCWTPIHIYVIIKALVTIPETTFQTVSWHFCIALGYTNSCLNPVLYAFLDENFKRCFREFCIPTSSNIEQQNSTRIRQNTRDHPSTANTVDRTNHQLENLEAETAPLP
Chain of antithrombin (P01008 33-464): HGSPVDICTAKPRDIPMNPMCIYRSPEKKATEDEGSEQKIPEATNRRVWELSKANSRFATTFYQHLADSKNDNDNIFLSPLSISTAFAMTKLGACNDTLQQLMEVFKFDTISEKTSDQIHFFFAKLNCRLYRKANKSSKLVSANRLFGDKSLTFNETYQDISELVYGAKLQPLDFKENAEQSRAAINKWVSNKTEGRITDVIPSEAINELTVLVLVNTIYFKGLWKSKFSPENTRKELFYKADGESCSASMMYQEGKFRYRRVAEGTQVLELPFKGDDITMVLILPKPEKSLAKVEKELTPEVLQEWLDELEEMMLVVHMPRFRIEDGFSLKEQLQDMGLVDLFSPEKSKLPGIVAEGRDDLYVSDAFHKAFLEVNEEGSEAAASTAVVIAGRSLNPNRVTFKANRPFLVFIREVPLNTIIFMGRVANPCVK
Chain of MRGPRX2 (Q96LB1 whole entry, species assumed): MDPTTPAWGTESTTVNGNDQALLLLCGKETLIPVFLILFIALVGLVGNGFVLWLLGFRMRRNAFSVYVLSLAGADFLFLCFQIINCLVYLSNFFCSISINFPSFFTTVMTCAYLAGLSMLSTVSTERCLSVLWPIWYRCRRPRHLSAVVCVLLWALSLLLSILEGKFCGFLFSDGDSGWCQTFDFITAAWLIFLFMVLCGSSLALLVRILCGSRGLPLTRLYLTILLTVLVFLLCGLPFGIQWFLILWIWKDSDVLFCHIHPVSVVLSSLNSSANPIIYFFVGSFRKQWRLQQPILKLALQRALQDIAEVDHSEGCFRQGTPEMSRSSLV

With `CCC[C@@H](NC(=O)c1cccc2c1CC(=O)N2)[C@@H](O)c1cccc(F)c1C` [GSK716] the EC50 (Adrenergic β2; Agonist) was > 100 µM, the IC50 (Adrenergic β2; Antagonist) was > 100 µM and the “total liver polymer load (manual or quantitative scoring of 2C1 staining)” value [1] was “no difference”. For the same molecule, the Papp at 60 min (P-gp (MDR1); with pgp inhibitor GF120918, read-out: permeability, apical to basal) was 248 nm/s, the Papp at 60 min (P-gp (MDR1); with pgp inhibitor GF120918, read-out: permeability, basal to apical) was 240 nm/s and the EC50 (MRGPRX2) was > 100 µM. The EC50 (Cannabinoid CB1) was > 100 µM, the EC50 (OPRM1) was > 100 µM and the EC50 (Adrenergic α2C) was > 100 µM. For the same molecule, the IC50 (Dopamine D1) was > 100 µM, the “inhibitory activity of antithrombin towards its cognate protease” value (antithrombin) was “did not affect” and the IC50 (NMDA (NR2B)) was > 50.1 µM. The EC50 (OPRK1) was 20 µM and the IC50 (Vasopressin V1a) was > 50.1 µM.
